Data taken from patent publication US11753407B2, “Compounds for treating spinal muscular atrophy” (PTC Therapeutics, Inc., priority 2012, dated 2023).

Experiments:
[1] = tested on: SMN2 minigene mRNA (SMN2-A minigene) in HEK293H cells; assay: SMN2 minigene mRNA splicing RT-qPCR assay in cultured cells; format: cell-based, human; settings: Homo sapiens, HEK293-H; concentration increasing full length SMN2 mRNA 1.5-fold relative to vehicle-treated cells; HEK293H cells with SMN2-A minigene, 24 hours, 7-point concentration data; read-out: EC1.5x for production of full length SMN2 mRNA
In short: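 Potency reflects the concentration that lifts full-length SMN2 minigene mRNA 1.5-fold above vehicle in stably transfected HEK293H cells after 24 h of treatment. Transcript abundance came from RT-qPCR as (1+E)^−Ct, normalized to GAPDH; endogenous SMN1/SMN2 are not detected.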

[2] = tested on: Smn protein in SMA patient fibroblast cells (GM03813); assay: Smn protein assay in cultured cells (SMN HTRF); format: cell-based, human; settings: SMA patient fibroblast cells, 48 hours; for EC1.5x for Smn protein expression: 7-point concentration curve, SMN HTRF, concentration producing 1.5 times Smn protein vs DMSO vehicle control; for maximum fold (Fold) increase of Smn protein: 7-point concentration data, fold relative to vehicle control
In short: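 Smn protein abundance in treated SMA fibroblasts was measured by HTRF after 48 h compound exposure. The reported EC1.5× is the concentration producing 1.5 times vehicle Smn levels.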

Structure (SMILES) | melting point [°C] | EC (1.5-fold increase) [1] [µM] | EC1.5x for Smn protein expression [2] | maximum fold (Fold) increase of Smn protein [2]
CCc1nc(C)cn2nc(-c3cc(=O)n4cc(C5=CC(C)(C)NC(C)(C)C5)ccc4n3)cc12 [Compound 745, 2-(4-ethyl-6-methylpyrazolo[1,5-a]pyrazin-2-yl)-7-(2,2,6,6-tetramethyl-1,2,3,6-tetrahydropyridin-4-yl)-4H-pyrido[1,2-a]pyrimidin-4-one] | 255 to 258 | < 0.1 | **** (an EC1.5x≤0.3 μM is indicated by four stars (****)) | ***** (a fold increase >1.65 is indicated by five stars (*****))
Cc1cn2nc(-c3cc(=O)n4cc(N5C[C@H]6CNC[C@H]6C5)ccc4n3)cc2c(C)n1 [Compound 746, 2-(4,6-dimethylpyrazolo[1,5-a]pyrazin-2-yl)-7-[(3aR,6aS)-hexahydropyrrolo[3,4-c]pyrrol-2(1H)-yl]-4H-pyrido[1,2-a]pyrimidin-4-one] | 239 to 242 | < 0.1 | **** (an EC1.5x≤0.3 μM is indicated by four stars (****)) | ***** (a fold increase >1.65 is indicated by five stars (*****))
CCc1nc(C)cn2nc(-c3cc(=O)n4cc(N5C[C@H]6CNC[C@H]6C5)ccc4n3)cc12 [Compound 747, 2-(4-ethyl-6-methylpyrazolo[1,5-a]pyrazin-2-yl)-7-[(3aR,6aS)-hexahydropyrrolo[3,4-c]pyrrol-2(1H)-yl]-4H-pyrido[1,2-a]pyrimidin-4-one] | 246 to 249 | < 0.1 | **** (an EC1.5x≤0.3 μM is indicated by four stars (****)) | ***** (a fold increase >1.65 is indicated by five stars (*****))
CCc1nc(C)cn2cc(-c3cc(=O)n4cc(N5C[C@@H](C)N[C@@H](C)C5)ccc4n3)cc12 [Compound 748, 7-[(3R,5S)-3,5-dimethylpiperazin-1-yl]-2-(1-ethyl-3-methylpyrrolo[1,2-a]pyrazin-7-yl)-4H-pyrido[1,2-a]pyrimidin-4-one] | 238 to 241 | < 0.1 | **** (an EC1.5x≤0.3 μM is indicated by four stars (****)) | ***** (a fold increase >1.65 is indicated by five stars (*****))
CCc1nc(C)cn2cc(-c3cc(=O)n4cc(N5CCCNCC5)ccc4n3)cc12 [Compound 749, 7-(1,4-diazepan-1-yl)-2-(1-ethyl-3-methylpyrrolo[1,2-a]pyrazin-7-yl)-4H-pyrido[1,2-a]pyrimidin-4-one] | 200 to 202 | < 0.1 | **** (an EC1.5x≤0.3 μM is indicated by four stars (****)) | ***** (a fold increase >1.65 is indicated by five stars (*****))
Cc1cc(-c2cc(=O)n3cc(N4CCN[C@@H](C)C4)ccc3n2)cc2cn(C)nc12 [Compound 750, 2-(2,7-dimethyl-2H-indazol-5-yl)-7-[(3S)-3-methylpiperazin-1-yl]-4H-pyrido[1,2-a]pyrimidin-4-one] | 308 to 310 | < 0.1 | **** (an EC1.5x≤0.3 μM is indicated by four stars (****)) | ***** (a fold increase >1.65 is indicated by five stars (*****))
Cc1cc(-c2cc(=O)n3cc(N4CCN(C)[C@@H](C)C4)ccc3n2)cc2cn(C)nc12 [Compound 751, 2-(2,7-dimethyl-2H-indazol-5-yl)-7-[(3S)-3,4-dimethylpiperazin-1-yl]-4H-pyrido[1,2-a]pyrimidin-4-one] | 202 to 204 | < 0.1 | **** (an EC1.5x≤0.3 μM is indicated by four stars (****)) | ***** (a fold increase >1.65 is indicated by five stars (*****))
Cc1cc(-c2cc(=O)n3cc(C4CCN(C)CC4)ccc3n2)cc2cn(C)nc12 [Compound 752, 2-(2,7-dimethyl-2H-indazol-5-yl)-7-(1-methylpiperidin-4-yl)-4H-pyrido[1,2-a]pyrimidin-4-one] | 208 to 210 | < 0.1 | **** (an EC1.5x≤0.3 μM is indicated by four stars (****)) | ***** (a fold increase >1.65 is indicated by five stars (*****))
CCN1CCC(c2ccc3nc(-c4cc(C)c5nn(C)cc5c4)cc(=O)n3c2)CC1 [Compound 753, 2-(2,7-dimethyl-2H-indazol-5-yl)-7-(1-ethylpiperidin-4-yl)-4H-pyrido[1,2-a]pyrimidin-4-one] | 162 to 164 | < 0.1 | **** (an EC1.5x≤0.3 μM is indicated by four stars (****)) | ***** (a fold increase >1.65 is indicated by five stars (*****))
CCCc1nc(C)cn2nc(-c3cc(=O)n4cc(C5=CCNCC5)ccc4n3)cc12 [Compound 762, 2-(6-methyl-4-propylpyrazolo[1,5-a]pyrazin-2-yl)-7-(1,2,3,6-tetrahydropyridin-4-yl)-4H-pyrido[1,2-a]pyrimidin-4-one] | 257 to 260 | < 0.1 | **** (an EC1.5x≤0.3 μM is indicated by four stars (****)) | ***** (a fold increase >1.65 is indicated by five stars (*****))
CCc1nc(C)cn2nc(-c3cc(=O)n4cc(C5=CCNCC5)ccc4n3)cc12 [Compound 763, 2-(4-ethyl-6-methylpyrazolo[1,5-a]pyrazin-2-yl)-7-(1,2,3,6-tetrahydropyridin-4-yl)-4H-pyrido[1,2-a]pyrimidin-4-one] | 287 to 289 | < 0.1 | **** (an EC1.5x≤0.3 μM is indicated by four stars (****)) | ***** (a fold increase >1.65 is indicated by five stars (*****))

Continued, in another order:

melting point [°C] | Structure (SMILES) | EC (1.5-fold increase) [1] [µM] | EC1.5x for Smn protein expression [2] | maximum fold (Fold) increase of Smn protein [2]
233 to 243 | Cc1cc(N2CCNCC2)cn2c(=O)cc(-c3ccc4nn(C)cc4c3)nc12 [Compound 754, 9-methyl-2-(2-methyl-2H-indazol-5-yl)-7-(piperazin-1-yl)-4H-pyrido[1,2-a]pyrimidin-4-one] | < 0.1 | **** (an EC1.5x≤0.3 μM is indicated by four stars (****)) | ***** (a fold increase >1.65 is indicated by five stars (*****))
226 to 228 | Cc1cn2nc(-c3cc(=O)n4cc(N5CC(N(C)C)C5)ccc4n3)cc2c(C)n1 [Compound 757, 7-[3-(dimethylamino)azetidin-1-yl]-2-(4,6-dimethylpyrazolo[1,5-a]pyrazin-2-yl)-4H-pyrido[1,2-a]pyrimidin-4-one] | 0.3 to 1 | *** (an EC1.5× between >0.3 μM and ≤1 μM is indicated by three stars (***)) | **** (a fold increase between >1.5 and ≤1.65 is indicated by four stars (****))
231 to 233 | CCN(CC)C1CN(c2ccc3nc(-c4cc5c(C)nc(C)cn5n4)cc(=O)n3c2)C1 [Compound 758, 7-[3-(diethylamino)azetidin-1-yl]-2-(4,6-dimethylpyrazolo[1,5-a]pyrazin-2-yl)-4H-pyrido[1,2-a]pyrimidin-4-one] | 0.3 to 1 |  | *** (a fold increase between >1.35 and ≤1.5 is indicated by three stars (***))
235 to 237 | Cc1cn2nc(-c3cc(=O)n4cc(N5CC(N6CCCC6)C5)ccc4n3)cc2c(C)n1 [Compound 759, 2-(4,6-dimethylpyrazolo[1,5-a]pyrazin-2-yl)-7-[3-(pyrrolidin-1-yl)azetidin-1-yl]-4H-pyrido[1,2-a]pyrimidin-4-one] | 0.1 to 0.3 | *** (an EC1.5× between >0.3 μM and ≤1 μM is indicated by three stars (***)) | ***** (a fold increase >1.65 is indicated by five stars (*****))
212 to 214 | CCc1nc(C)cn2nc(-c3cc(=O)n4cc(N5CCCNCC5)ccc4n3)cc12 [Compound 760, 7-(1,4-diazepan-1-yl)-2-(4-ethyl-6-methylpyrazolo[1,5-a]pyrazin-2-yl)-4H-pyrido[1,2-a]pyrimidin-4-one] | < 0.1 | **** (an EC1.5x≤0.3 μM is indicated by four stars (****)) | ***** (a fold increase >1.65 is indicated by five stars (*****))
212 to 214 | CCCc1nc(C)cn2nc(-c3cc(=O)n4cc(N5C[C@H]6CNC[C@H]6C5)ccc4n3)cc12 [Compound 761, 7-[(3aR,6aS)-hexahydropyrrolo[3,4-c]pyrrol-2(1H)-yl]-2-(6-methyl-4-propylpyrazolo[1,5-a]pyrazin-2-yl)-4H-pyrido[1,2-a]pyrimidin-4-one] | < 0.1 | **** (an EC1.5x≤0.3 μM is indicated by four stars (****)) | ***** (a fold increase >1.65 is indicated by five stars (*****))
